Legend:
Assay type in all cases: in vitro ADME
[1] = Metabolic stability assay in human liver microsomes (HLM); conditions: 1 μM
Method in brief: (§1)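 In Protocol 1, compound was 1 μM final with NADPH at 37 °C, sampled at 0–45 min. In Protocol 2, 1.5 μM compound with 0.75 mg/mL microsomes (pre-NADPH mix) in 0.1 M potassium phosphate, 1 mM EDTA, pH 7.4 was pre-incubated 10 min, then NADPH started the reaction. Both: LC-MS/MS % remaining versus time 0, half-life from single-phase exponential fit.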

[2] = Human plasma stability; conditions: plasma; for % Remaining @ 2 h: 5 μM
Method in brief: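 Compound remaining was quantified by LC-MS/MS as peak-area ratio to internal standard relative to time 0, with half-lives from single-exponential fits. Protocol 1 incubated 1 μM in heparinized human plasma (pH 7.4, 37° C) to 120 min; protocol 2 used 5 μM, pH 7.4–8.0, 37° C, n=2, to 120 min.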

[3] = Metabolic stability assay in rat liver microsomes (RLM); conditions: 1 μM
Method in brief: as §1

SMILES | HLM ([1]; Protocol No. 1, human liver microsomes) [mL/min/kg] | % Remaining @ 2 h ([2]; Protocol No. 2, 37° C.) [%] | RLM ([3]; Protocol No. 1, rat liver microsomes) [mL/min/kg] | HLM ([1]; human, microsomes) [mL/min/kg] | % Remaining @ 2 h ([2]; human, 2 h) [%] | RLM ([3]; rat, microsomes) [mL/min/kg] | T1/2 ([2]; human)
Cc1cc(Cl)c2c(C(=O)OCC34CCN(CC3)CC4)c[nH]c2c1.Cl [Compound 65, quinuclidin-4-ylmethyl 4-chloro-6-methyl-1H-indole-3-carboxylate hydrochloride] | 2.253 | 72.66 | 286.666 | – | – | – | –
O=C(OCC12CCN(CC1)CC2)c1c[nH]c2cc(O)cc(Cl)c12 [Compound 46, quinuclidin-4-ylmethyl 4-chloro-6-hydroxy-1H-indole-3-carboxylate] | – | – | – | 7.385 | 91.9 | 32.4827 | –
COc1c(OCC(F)(F)F)ccc2[nH]cc(C(=O)OCC34CCN(CC3)CC4)c12 [Compound 88, quinuclidin-4-ylmethyl 4-methoxy-5-(2,2,2-trifluoroethoxy)-1H-indole-3-carboxylate] | – | – | – | 3.31 | 110.47 | 25.96 | ∞
